Each structure is given as a SMILES string. Read-outs that look alike come from different tables or passages of the source.

One data set has as its target T1, vertebrate VAChT (Homo sapiens, UniProt Q16572).
T1 sequence (Q16572 1-532): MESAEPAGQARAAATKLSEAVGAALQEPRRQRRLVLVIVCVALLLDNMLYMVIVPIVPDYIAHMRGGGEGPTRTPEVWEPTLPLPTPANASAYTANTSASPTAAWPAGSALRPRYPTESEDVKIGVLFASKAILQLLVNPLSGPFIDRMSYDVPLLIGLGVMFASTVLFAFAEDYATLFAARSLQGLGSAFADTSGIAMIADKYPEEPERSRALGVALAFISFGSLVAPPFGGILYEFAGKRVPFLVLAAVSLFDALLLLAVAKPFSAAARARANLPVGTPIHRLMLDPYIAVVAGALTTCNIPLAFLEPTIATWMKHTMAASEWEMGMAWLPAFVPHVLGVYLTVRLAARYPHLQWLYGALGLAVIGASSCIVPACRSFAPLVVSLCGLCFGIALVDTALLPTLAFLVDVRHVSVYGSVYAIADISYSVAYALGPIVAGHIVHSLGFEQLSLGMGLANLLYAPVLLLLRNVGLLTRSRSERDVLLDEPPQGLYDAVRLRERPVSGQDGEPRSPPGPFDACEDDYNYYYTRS
Conditions: Khare et. al.; cited from earlier work.

Another data set deals with mammals. Conditions: Brittain et. al.; cited from earlier work.
The subject of another data set is Haemonchus contortus L3. Briefly: Haemonchus contortus, Larvae Stage 3 (HcL3) In Vitro Assay. Conditions: Haemonchus contortus.
The test system of data set [1] is Dirofilaria immitis microfilariae. Briefly: Dirofilaria immitis, Microfilariae (DiMF) In Vitro Assay.
In data set [2] the target is T2, bovine vesicular acetylcholine transporter (VAChT) (Bos taurus, UniProt E1BK36).
T2 sequence (E1BK36 1-524): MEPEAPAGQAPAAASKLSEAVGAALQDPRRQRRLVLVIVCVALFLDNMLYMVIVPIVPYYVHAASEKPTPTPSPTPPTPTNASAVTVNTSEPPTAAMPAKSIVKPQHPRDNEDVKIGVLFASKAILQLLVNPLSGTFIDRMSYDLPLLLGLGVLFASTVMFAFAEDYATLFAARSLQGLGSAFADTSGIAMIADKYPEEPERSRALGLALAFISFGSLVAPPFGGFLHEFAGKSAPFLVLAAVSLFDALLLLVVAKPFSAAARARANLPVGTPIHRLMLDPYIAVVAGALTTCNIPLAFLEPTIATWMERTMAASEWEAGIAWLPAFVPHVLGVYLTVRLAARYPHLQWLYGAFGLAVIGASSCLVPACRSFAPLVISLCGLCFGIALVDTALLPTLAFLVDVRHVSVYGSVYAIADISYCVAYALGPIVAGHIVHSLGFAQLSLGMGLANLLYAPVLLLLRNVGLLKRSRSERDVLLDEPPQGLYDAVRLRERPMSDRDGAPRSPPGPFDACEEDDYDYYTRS
Briefly: Radioligand Binding Assay. Conditions: Bovine binding Ki, CHO-K1 membranes with recombinant bovine VAChT, [3H]Compound X6 0.3 nM.
Experimental: To measure binding affinity, CHO-K1 cells recombinantly expressing the bovine VAChT was generated as a stable cell line and subsequently used to produce membrane preparations.
Radioligand binding assays were conducted in disposable polypropylene 96-well plates. VAChT competition assays were initiated by the addition of bovine recombinant membrane homogenate (50 μg/well) in assay buffer (50 mM Tris-HCl, 120 mM NaCl, 5 mM KCl, 1 mM MgCl, and 2 mM CaCl, pH 7.4) containing [^3H]Compound X6 (0.3 nM) with or without competing ligand. The assay was allowed to equilibrate for 120 minutes at room temperature, before being filtered onto GF/C unifilter plates pre-coated in 0.3% polyethylenimine (Perkin Elmer Life and Analytical Sciences, Boston, Mass.) with a Filtermate 96 harvester (PerkinElmer Life and Analytical Sciences). Filters were washed in ice-cold 50 mM Tris-HCl, pH 7.4 buffer and then counted for radioactivity in a TopCount microplate scintillation counter after addition of 50 μL Microscint 20 (PerkinElmer). Non-specific binding was measured in the presence of 10 μM Compound X6. Apparent dissociation constants (Ki values) from the competition experiments were calculated using an iterative nonlinear regression curve-fitting program (GraphPAD Prism 6.0 Software, San Diego, Calif.) and are reported in Table 2.

[3] abbreviates: 96 h, read-out: HcL3 MEC, Minimal Effective Concentration whereby worm motility is inhibited by approximately 70%, 37° C., tested 0.001-100 μM.
Where [4] appears, read: Dirofilaria immitis, 72 h, read-out: Di MF, MEC, decrease in microfilariae motility by visual assessment, curve starting at 100 μM.
Setting [5] is: 96 hours, 37° C., read-out: HcL3 MEC.
[6] abbreviates: Dirofilaria immitis, 72 hours, read-out: Di MF.

Turning to `OC1CCCCC1N1CCC(c2ccccc2)CC1` (centres unmarked) [Vesamicol, 2-(4-phenyl-piperidino)-cyclohexanol], the “binding affinity to vertebrate VAChT” value at vertebrate VAChT is reported as “high affinity”. Besides, the toxicity to mammals result in the data set with mammals was “highly toxic”.
In general, Ki refers to a dissociation constant, usually derived from enzyme kinetics or from competition with a known ligand. On to `O=C(NCc1ccnc(Cl)c1)N1CC2(CCN(C/C=C/c3ccc(Cl)c(Cl)c3)CC2)c2c(Cl)cccc21` [Example 131, (E)-4-chloro-N-((2-chloropyridin-4-yl)methyl)-1′-(3-(3,4-dichlorophenyl)allyl) spiro[indoline-3,4′-piperidine]-1-carboxamide], for which the minimal effective concentration with Haemonchus contortus L3 (setting [3]) came to 3.3 µM; in data set [1] (setting [4]) it was 10 µM. For the same compound, the inhibitory constant (Ki) in data set [2] worked out at 184 nM.
As for `O=C(NCc1ccnc(F)c1)N1CC2(CCN(C/C=C/c3ccc(Cl)c(Cl)c3)CC2)c2cc(-c3cn[nH]c3)ccc21` [Example 111, 1′-[(E)-3-(3,4-dichlorophenyl)allyl]-N-[(2-fluoro-4-pyridyl)methyl]-5-(1H-pyrazol-4-yl)spiro[indoline-3,4′-piperidine]-1-carboxamide], the minimal effective concentration was determined as 100 µM in the data set with Haemonchus contortus L3 (setting [3]) and 10 µM in data set [1] (setting [4]). Besides, the Ki in data set [2] was 3380 nM.
The like results for `O=C(NCc1cncs1)N1CC2(CCN(C/C=C/c3ccc(Cl)c(Cl)c3)CC2)c2c1ccc1scnc21` [Example 22, (E)-1-(3-(3,4-dichlorophenyl)allyl)-N-(thiazol-5-ylmethyl)spiro[piperidine-4,8′-thiazolo[4,5-e]indole]-6′(7′H)-carboxamide] were, in that order, 100 µM, 10 µM and 131 nM.
Consider `O=C(NCc1ccnc(Cl)c1)N1CC2(CCN(C/C=C/c3ccc(Cl)cc3)CC2)c2cc(OC(F)(F)F)ccc21` [Example 147, (E)-1′-(3-(4-chlorophenyl)allyl)-N-((2-chloropyridin-4-yl)methyl)-5-(trifluoromethoxy)spiro[indoline-3,4′-piperidine]-1-carboxamide], for which the minimal effective concentration in the data set with Haemonchus contortus L3 (setting [3]) came to 3.9 µM; in data set [1] (MEC, decrease in microfilariae motility by visual assessment, 72 hours, curve starting at 100 μM, read-out: Di MF), 4.8 µM. Besides, in data set [2], the Ki is 322 nM.
With `CC1(C)Oc2cc3c(cc2O1)C1(CCN(C/C=C/c2ccc(Cl)c(Cl)c2)CC1)CN3C(=O)NCc1ccnc(Cl)c1` [Example 7, (E)-N-((2-chloropyridin-4-yl)methyl)-1-(3-(3,4-dichlorophenyl)allyl)-2′,2′-dimethylspiro[piperidine-4,7′-[1,3]dioxolo[4,5-f]indole]-5′(6′H)-carboxamide], the minimal effective concentration came to 100 µM in the data set with Haemonchus contortus L3 (setting [5]) and 10 µM in data set [1] (setting [6]). In addition, the inhibitory constant (Ki) in data set [2] turned out to be 516 nM.
On to `COc1cc2c(cn1)C1(CCN(C/C=C/c3ccc(Cl)c(Cl)c3)CC1)CN2C(=O)NCc1ccnc(Cl)c1` [Example 65, (E)-N-((2-chloropyridin-4-yl)methyl)-1-(3-(3,4-dichlorophenyl)allyl)-6′-methoxyspiro[piperidine-4,3′-pyrrolo[3,2-c]pyridine]-1′(2′H)-carboxamide], for which the minimal effective concentration in the data set with Haemonchus contortus L3 (setting [3]) came out at 3.3 µM; in data set [1] (setting [4]), 1.8 µM. Besides, in data set [2], the Ki amounted to 49.4 nM.
The corresponding values for `O=C(NCc1ccnc(Cl)c1)N1CC2(CCN(C/C=C/c3ccc(F)cc3)CC2)c2c1cccc2C(F)(F)F` [Example 153, (E)-N-((2-chloropyridin-4-yl)methyl)-1′-(3-(4-fluorophenyl)allyl)-4-(trifluoromethyl)spiro[indoline-3,4′-piperidine]-1-carboxamide] are 5.7 µM, 7.6 µM and 218 nM.
Consider `O=C(NCc1ccnc(Cl)c1)N1CC2(CCN(C/C=C/c3ccc(F)cc3)CC2)c2cc(C(F)(F)F)ccc21` [Example 154, (E)-N-((2-chloropyridin-4-yl)methyl)-1′-(3-(4-fluorophenyl)allyl)-5-(trifluoromethyl)spiro[indoline-3,4′-piperidine]-1-carboxamide], for which the minimal effective concentration is 6.6 µM in the data set with Haemonchus contortus L3 (setting [5]) and 2.8 µM in data set [1] (setting [6]). Further, the Ki in data set [2] was found to be 283 nM.
Take `O=C(NCc1ccnc(Cl)c1)N1CC2(CCN(C/C=C/c3ccc(C(F)(F)F)cc3)CC2)c2cc(OC(F)(F)F)ccc21` [Example 181, (E)-N-((2-chloropyridin-4-yl)methyl)-5-(trifluoromethoxy)-1′-(3-(4-(trifluoromethyl)phenyl)allyl)spiro[indoline-3,4′-piperidine]-1-carboxamide]: the minimal effective concentration was 100 µM in the data set with Haemonchus contortus L3 (setting [3]) and 10 µM in data set [1] (setting [4]). In addition, in data set [2], the Ki amounted to 816 nM.
The corresponding values for `COc1ccc(-c2ccc3c(c2)C2(CCN(C/C=C/c4ccc(Cl)cc4)CC2)CN3C(=O)NCc2ccnc(Cl)c2)cn1` [Example 119, 1′-[(E)-3-(4-chlorophenyl)allyl]-N-[(2-chloro-4-pyridyl)methyl]-5-(6-methoxy-3-pyridyl)spiro[indoline-3,4′-piperidine]-1-carboxamide] are 100 µM, 10 µM and 177 nM.
For `O=C(NCc1ccccc1)N1CC2(CCN(C/C=C/c3ccc(Cl)c(Cl)c3)CC2)c2c1ccc1scnc21` [Example 15, (E)-N-benzyl-1-(3-(3,4-dichlorophenyl)allyl)spiro[piperidine-4,8′-thiazolo[4,5-e]indole]-6′(7′H)-carboxamide], the minimal effective concentration in the data set on Haemonchus contortus L3 (setting [3]) turned out to be 100 µM; in data set [1] (setting [4]) it was 4.4 µM. In data set [2], the inhibition constant (Ki) is 610 nM.
On to `O=C(NCc1ccnc(Cl)c1)N1CC2(CCN(C/C=C/c3ccc(Cl)cc3)CC2)c2cc(N3CCCC3)ccc21` [Example 76, (E)-1′-(3-(4-chlorophenyl)allyl)-N-((2-chloropyridin-4-yl)methyl)-5-(pyrrolidin-1-yl)spiro[indoline-3,4′-piperidine]-1-carboxamide], for which the minimal effective concentration in the data set with Haemonchus contortus L3 (setting [3]) is 100 µM; in data set [1] (setting [4]), 1.8 µM. Also, the inhibition constant (Ki) in data set [2] was determined as 1420 nM.
In the case of `O=C(NCc1ccnc(F)c1)N1CC2(CCN(C/C=C/c3ccc(Cl)cc3)CC2)c2cc(Cl)c(Cl)cc21` [Example 70, (E)-5,6-dichloro-1′-(3-(4-chlorophenyl)allyl)-N-((2-fluoropyridin-4-yl)methyl)spiro[indoline-3,4′-piperidine]-1-carboxamide], the figures for the minimal effective concentration (in the data set with Haemonchus contortus L3 (setting [3]); in data set [1] (setting [4])) were 3.3 µM and 7.6 µM, respectively. Further, in data set [2], the Ki worked out at 252 nM.
`O=C(NCc1ccnc(Cl)c1)N1CC2(CCN(C/C=C/c3ccc(Cl)cc3)CC2)c2c1ccc(Cl)c2Cl` [Example 144, (E)-4,5-dichloro-1′-(3-(4-chlorophenyl)allyl)-N-((2-chloropyridin-4-yl)methyl)spiro[indoline-3,4′-piperidine]-1-carboxamide]: the minimal effective concentration worked out at 3.3 µM in the data set on Haemonchus contortus L3 (setting [5]) and 10 µM in data set [1] (setting [6]). For the same compound, the Ki in data set [2] amounted to 26.2 nM.

The values above are taken from patent US20160296499A1, “Spiroindoline Antiparasitic Derivatives” (ZOETIS SERVICES LLC, priority 2013, published 2016).
